Data taken from ChEMBL document CHEMBL1201862, “PubChem BioAssay data set” (2004).
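Interpolation was linear, between the two tested concentrations surrounding the appropriate level; five concentrations were tested over 48 hours in 96-well plates. GI50: concentration for 50% inhibition of growth.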 The source made the active and inactive calls. Cut-off read from the data, not from the text of the source: active = GI50 up to about 1.1 µM and inactive = higher.

Assays:
Assay in all cases: NCI anticancer screen, dose series, 48 h
786-0 = system: 786-0
A498 = system: A498
A549 = system: A549
ACHN = system: ACHN
BT-549 = system: BT-549
CAKI-1 = system: CAKI-1
CCRF-CEM = system: CCRF-CEM
COLO 205 = system: COLO 205
DLD-1 = system: DLD-1
DMS-114 = system: DMS-114
DMS-273 = system: DMS-273
DU-145 = system: DU-145
EKVX = system: EKVX
HCC 2998 = system: HCC 2998
HCT-116 = system: HCT-116
HCT-15 = system: HCT-15
HL-60 = system: HL-60
HOP-18 = system: HOP-18
HOP-62 = system: HOP-62
HOP-92 = system: HOP-92
HT-29 = system: HT-29
IGROV-1 = system: IGROV-1
K562 = system: K562
KM-20L2 = system: KM-20L2
KM12 = system: KM12
LOX IMVI = system: LOX IMVI
M14 = system: M14
M19-MEL = system: M19-MEL
MCF7 = system: MCF7
MDA-MB-231 = system: MDA-MB-231
MDA-MB-435 = system: MDA-MB-435
MDA-N = system: MDA-N
MOLT-4 = system: MOLT-4
Malme-3M = system: Malme-3M
NCI-H226 = system: NCI-H226
NCI-H23 = system: NCI-H23
NCI-H460 = system: NCI-H460
NCI-H522 = system: NCI-H522
NCI/ADR-RES = system: NCI/ADR-RES
OVCAR-3 = system: OVCAR-3
OVCAR-4 = system: OVCAR-4
OVCAR-5 = system: OVCAR-5
OVCAR-8 = system: OVCAR-8
PC-3 = system: PC-3
RPMI-8226 = system: RPMI-8226
RXF 393 = system: RXF 393
SF-268 = system: SF-268
SF-295 = system: SF-295
SF-539 = system: SF-539
SK-MEL-28 = system: SK-MEL-28
SK-MEL-2 = system: SK-MEL-2
SK-MEL-5 = system: SK-MEL-5
SK-OV-3 = system: SK-OV-3
SN12C = system: SN12C
SNB-19 = system: SNB-19
SNB-75 = system: SNB-75
SNB-78 = system: SNB-78
SR = system: SR
SW-620 = system: SW-620
T47D = system: T47D
TK-10 = system: TK-10
U-251 = system: U-251
UACC-257 = system: UACC-257
UACC-62 = system: UACC-62
UO-31 = system: UO-31
XF498 = system: XF498

CCCCCCCCCCCC[S+](C)C
GI50 (786-0): 1.69 µM (inactive) | GI50 (A498): 10.7 µM (inactive) | GI50 (A549): 11.5 µM (inactive) | GI50 (ACHN): 4.56 µM (inactive) | GI50 (BT-549): 2.19 µM (inactive) | GI50 (CAKI-1): 1.57 µM (inactive) | GI50 (CCRF-CEM): 2.04 µM (inactive) | GI50 (COLO 205): 1.29 µM (inactive) | GI50 (DLD-1): 8.81 µM (inactive) | GI50 (DMS-114): 2.5 µM (inactive) | GI50 (DMS-273): 5.2 µM (inactive) | GI50 (DU-145): 1.61 µM (inactive) | GI50 (EKVX): 4.83 µM (inactive) | GI50 (HCC 2998): 4.21 µM (inactive) | GI50 (HCT-116): 6.22 µM (inactive) | GI50 (HCT-15): 18.5 µM | GI50 (HL-60): 3.01 µM (inactive) | GI50 (HOP-18): 4.97 µM (inactive) | GI50 (HOP-62): 0.665 µM (active) | GI50 (HOP-92): 1.63 µM (inactive) | GI50 (HT-29): 3.41 µM (inactive) | GI50 (IGROV-1): 2 µM (inactive) | GI50 (K562): 3.48 µM (inactive) | GI50 (KM-20L2): 5.11 µM (inactive) | GI50 (KM12): 3.36 µM (inactive) | GI50 (LOX IMVI): 2.86 µM (inactive) | GI50 (M14): 5.14 µM (inactive) | GI50 (M19-MEL): 1.45 µM (inactive) | GI50 (MCF7): 9.02 µM (inactive) | GI50 (MDA-MB-231): 0.0124 µM (active) | GI50 (MDA-MB-435): 3.36 µM (inactive) | GI50 (MDA-N): 1.23 µM (inactive) | GI50 (MOLT-4): 4.94 µM (inactive) | GI50 (Malme-3M): 8.38 µM (inactive) | GI50 (NCI-H226): 1.77 µM (inactive) | GI50 (NCI-H23): 4.48 µM (inactive) | GI50 (NCI-H460): 9.4 µM (inactive) | GI50 (NCI-H522): 3.7 µM (inactive) | GI50 (NCI/ADR-RES): > 44.1 µM (inactive) | GI50 (OVCAR-3): 5.38 µM (inactive) | GI50 (OVCAR-4): 6.07 µM (inactive) | GI50 (OVCAR-5): 8.43 µM (inactive) | GI50 (OVCAR-8): 4.67 µM (inactive) | GI50 (PC-3): 1.58 µM (inactive) | GI50 (RPMI-8226): 3.41 µM (inactive) | GI50 (RXF 393): 2.07 µM (inactive) | GI50 (SF-268): 6.68 µM (inactive) | GI50 (SF-295): 5.87 µM (inactive) | GI50 (SF-539): 6.24 µM (inactive) | GI50 (SK-MEL-28): 10.5 µM (inactive) | GI50 (SK-MEL-2): 5.02 µM (inactive) | GI50 (SK-MEL-5): 3.17 µM (inactive) | GI50 (SK-OV-3): 8.49 µM (inactive) | GI50 (SN12C): 3.88 µM (inactive) | GI50 (SNB-19): 6.59 µM (inactive) | GI50 (SNB-75): 5.68 µM (inactive) | GI50 (SNB-78): 5.2 µM (inactive) | GI50 (SR): 8.69 µM (inactive) | GI50 (SW-620): 9.23 µM (inactive) | GI50 (T47D): 0.516 µM (active) | GI50 (TK-10): 3.15 µM (inactive) | GI50 (U-251): 5.25 µM (inactive) | GI50 (UACC-257): 4.18 µM (inactive) | GI50 (UACC-62): 6.4 µM (inactive) | GI50 (UO-31): 10.1 µM (inactive) | GI50 (XF498): 2.69 µM (inactive)
